Patent publication US4192944A, “Optionally substituted 4-oxo-4H-pyrido[1,2-a]pyrimidine-3-N-(1H-tetrazol-4-yl)carboxamides and their use as antiallergy agents” (priority 1978, dated 1980)
Read-outs that look alike come from different tables or passages of the source.

Columns and labels:
[1] = test system: reagin-mediated Passive Cutaneous Anaphylaxis (PCA); test: reagin-mediated rat Passive Cutaneous Anaphylaxis (PCA) screening test; format: in vivo
Description: The reagin-mediated rat Passive Cutaneous Anaphylaxis (PCA) screening test used to evaluate the present compounds is generally regarded as one of the best animal models for use in predicting the antiallergy activity of test compounds in man. This screen provides a measure of the effectiveness of test compounds in either inhibiting the release or antagonizing the action of mediators arising from the interaction of reaginic antibodies with specific antigen, mediators which are causative factors in allergic disorders. The details of the test are fully described in U.S. Pat. No. 4,031,093.
The test compounds were solubilized in aqueous sodium bicarbonate and administered intravenously (i.v.) or per os (p.o.) either one or ten minutes, respectively, prior to antigen challenge. Disodium cromoglycate (DSCG), solubilized in saline, was administered i.v. at the time of challenge and p.o 30 minutes prior to challenge.

[2] = test system: release of mediators, e.g. histamine and SRS-A; conditions: administered to asthmatic patients prior to inhalation of specific antigens; cited from earlier work
[3] = cited from earlier work
[4] = must be administered by inhalation; cited from earlier work
[5] = po, in aqueous sodium bicarbonate, ten minutes prior to antigen challenge, read-out: ID50 p.o. (dose of compound that inhibits 50% of the response)

Structure (SMILES): O=C(O)c1cc(=O)c2c(OCC(O)COc3cccc4oc(C(=O)O)cc(=O)c34)cccc2o1 [DSCG, Disodium cromoglycate]
- ED50 ([1]; iv, DSCG, i.v., in saline, at the time of challenge, read-out: ID50 i.v. (dose of compound that inhibits 50% of the response)): 0.6 mg/kg
- ED50 ([1]; po, DSCG, p.o., in saline, 30 minutes prior to challenge, read-out: ID50 p.o. (dose of compound that inhibits 50% of the response)): > 30 mg/kg
- inhibition of release of mediators (histamine, SRS-A) [2]: inhibits the release of mediators
- side effects ([3]; in vivo): without cardiovascular side effects
- oral absorption [4]: not orally absorbed

Structure (SMILES): O=C(Nc1nnn[nH]1)c1cnc2ccccn2c1=O [Example 1, 4-Oxo-4H-pyrido[1,2-a]pyrimidine-3-N-(1H-tetrazol-5-yl)carboxamide]
- ED50 [1, 5]: 0.2 mg/kg

Structure (SMILES): Cc1cccn2c(=O)c(C(=O)Nc3nnn[nH]3)cnc12 [Example 2, 9-Methyl-4-oxo-4H-pyrido[1,2-a]pyrimidine-3-N-(1H-tetrazol-5-yl)carboxamide]
- ED50 ([1]; iv, in aqueous sodium bicarbonate, one minute prior to antigen challenge, read-out: ID50 i.v. (dose of compound that inhibits 50% of the response)): 0.04 mg/kg
- ED50 [1, 5]: 0.1 mg/kg

Structure (SMILES): CCc1cccn2c(=O)c(C(=O)Nc3nnn[nH]3)cnc12 [Example 3, 9-Ethyl-4-oxo-4H-pyrido[1,2-a]pyrimidine-3-N-(1H-tetrazol-5-yl)carboxamide]
- ED50 [1, 5]: 0.1 mg/kg

Structure (SMILES): CN1[C@@H]2CC[C@H]1C[C@@H](OC(=O)C(CO)c1ccccc1)C2 (stereo partly shown) [atropine]
- side effects ([3]; treatment of bronchial asthma): cardiac stimulation and gastrointestinal distress

Structure (SMILES): CNC[C@H](O)c1ccc(O)c(O)c1 [epinephrine]
- side effects ([3]; treatment of bronchial asthma): cardiac stimulation and gastrointestinal distress

Structure (SMILES): CC(C)NCC(O)c1ccc(O)c(O)c1 (stereo not shown) [isoproterenol]
- side effects ([3]; treatment of bronchial asthma): cardiac stimulation and gastrointestinal distress

Structure (SMILES): Cn1c(=O)c2[nH]cnc2n(C)c1=O [theophylline]
- side effects ([3]; in vivo): cardiac stimulation and gastrointestinal distress
